Results: patent publication US20240226211A9, “SEAWEED EXTRACTS, ISOLATED COMPOUNDS, AND METHODS OF TREATMENT” (University of Florida Research Foundation, Incorporated, priority 2017, published 2024)

How the values were obtained:
NQO1 = assay: qPCR of NQO1 transcript in IMR-32 cells; assay type: cell-based, human; conditions: 12 h
Description: The cells were seeded in 6-well format (see immunoblot) and treated with a solvent control (DMSO, 1%, v/v), isolated compounds, or extracts for 12 h. The RNeasy Mini Kit (Qiagen) was used to collect total RNA from cells, while for mouse tissue, TRIzol reagent (Invitrogen) was used. In each case, total RNAs (2 μg) were reverse-transcribed into cDNAs, which were used as templates for TaqMan gene expression assay (Applied Biosystems) and detected using the 7300 Real-Time PCR System (Applied Biosystems). Each qPCR sample was tested in triplicate as a 25 μL total reaction volume (12.5 μL of Taqman 2× universal master mix, 1.25 μL of a 20× TaqMan gene expression assay probe, 1 μL of the above cDNA, and 10.25 μL of RNase-free sterile water). The qPCR method was designed as following: 50° C. for 2 min, 95° C. for 10 min, and 40 cycles of 95° C. for 15 s and 60° C. for 1 min. Endogenous controls used included GAPDH for IMR-32 cells and β-actin to normalize for RAW264.7 cells and mouse tissues.

[1] = target: T1, full-length human recombinant KEAP1 (Homo sapiens, UniProt Q14145); assay: LC-MS/MS mapping of cysteine adducts on recombinant KEAP1; assay type: binding; conditions: excess CymQ
T1 construct: cysteine residues of full-length human recombinant KEAP1 in vitro
From the text: To obtain a global picture of cysteine modification of Keap1, rather than focusing on known functionally relevant residues, a proteomics approach was utilized, monitoring the effect of activated cymopol (CymQ) on cysteine residues of full-length human recombinant KEAP1 in vitro, similarly as described [Wang R, et al. (2013) In vitro and in vivo characterization of a tunable dual-reactivity probe of the Nrf2-ARE pathway. ACS Chem Biol 8(8):1764-1774; Hur W, et al. (2010) A small-molecule inducer of the antioxidant response element. Chem Biol 17(5):537-547]. Briefly, KEAP1 was treated with excess CymQ and adducts were mapped by LC-MS/MS in three separate experiments (five different conditions) using DTT, chymotrypsin and trypsin as the variables for different sample preparations, in order to capture more potential adducts. The most abundant modification observed was a mass increase of 242, resulting from an addition-elimination reaction of 5 (FIGS. 54 and 55) with loss of bromine, which is unique to CymQ compared with tBQ. Additional representative spectra for different types of tags can be found in SI Appendix, Fig. S4. […] Most ARE activators belong to class 1 of this cysteine code where Cys151 is readily modified, although contradictory results are shown for these compounds based on the experimental conditions used. […]

[2] = assay type: physicochemical
Description: Silver oxide (14.2 mg) was added to a solution of cymopol 1 (6.6 mg) in dichloromethane (2.5 mL). The reaction mixture was stirred at room temperature for 15 min before being evaporated in vacuum. The crude product was purified by preparative TLC plate (ethyl acetate/hexane 1:4, v/v, Rf 0.8) to give 4.92 mg product 5 (75% yield).

[3] = test system: ARE-luciferase reporter (human NQO1-ARE) in IMR-32 cells; assay: ARE-luc reporter assay in IMR-32 cells; assay type: cell-based; conditions: relative to Compounds 1 and 2; assay not specified
From the text: The ARE-luciferase reporter construct (ARE-luc) contains the core sequence of human NQO1-ARE1. The mock plasmid (pcDNA3-mRFP) was purchased from Addgene (plasmid 13032). The following plasmids were reported by Zhang et a/.2003 [Zhang, D. D., and Hannink, M. (2003) Distinct cysteine residues in Keap1 are required for Keap1-dependent ubiquitination of Nrf2 and for stabilization of Nrf2 by chemopreventive agents and oxidative stress. Mol. Cell. Biol. 23, 8137-8151]. The Keap1-CBD plasmid carries the entire open reading frame (ORF) of human Keap1 fused to the chitin binding domain (CBD) of the Bacillus circulans chitinase A1 gene upstream of the Keap1 stop codon. Oligonucleotide-directed mutagenesis was used to generate the Keap1-C151S-CBD and Keap1-C288S-CBD plasmids. The HA-Cul3 plasmid was constructed by fusing an N-terminal hemagglutinin (HA) tag with a cDNA sequence coding for amino acids 1-380 of human Cul3 gene. The Gal4-Neh2 expression vector contains the codons for the first 97 amino acids (Neh2 domain) of human Nrf2 fused to the ORF of the Gal4 DNA-binding domain
An ARE-luciferase reporter plasmid and CMV-GFP plasmid (to monitor transfection efficiency) were co-transfected into a human androgen-sensitive prostate cancer cell line, LNCaP (6×10^4 cells/well), and a human neuroblastoma cell line, IMR-32 (3×10^4 cells/well), using Fugene® HD (Roche Diagnostics) in 96-well format. […] J Biol Chem. 2002; 277:388-394; Lee J M, Hanson J M, Chu W A, Johnson J A. Phosphatidylinositol 3-kinase, not extracellular signal-regulated kinase, regulates activation of the antioxidant-responsive element in IMR-32 human neuroblastoma cells. […] After 24 hours of incubation, cells were treated with extracts from Cymopolia barbata, a negative control (DMSO, 1%, v/v), and a positive control ([…] sulforaphane, SF, and tert-butylhydroquinone, tBHQ, respectively.) 24 hours post-treatment, luciferase activity was detected using BriteLite detection reagent (PerkinElmer). […]

T1 sequence (Q14145 whole entry): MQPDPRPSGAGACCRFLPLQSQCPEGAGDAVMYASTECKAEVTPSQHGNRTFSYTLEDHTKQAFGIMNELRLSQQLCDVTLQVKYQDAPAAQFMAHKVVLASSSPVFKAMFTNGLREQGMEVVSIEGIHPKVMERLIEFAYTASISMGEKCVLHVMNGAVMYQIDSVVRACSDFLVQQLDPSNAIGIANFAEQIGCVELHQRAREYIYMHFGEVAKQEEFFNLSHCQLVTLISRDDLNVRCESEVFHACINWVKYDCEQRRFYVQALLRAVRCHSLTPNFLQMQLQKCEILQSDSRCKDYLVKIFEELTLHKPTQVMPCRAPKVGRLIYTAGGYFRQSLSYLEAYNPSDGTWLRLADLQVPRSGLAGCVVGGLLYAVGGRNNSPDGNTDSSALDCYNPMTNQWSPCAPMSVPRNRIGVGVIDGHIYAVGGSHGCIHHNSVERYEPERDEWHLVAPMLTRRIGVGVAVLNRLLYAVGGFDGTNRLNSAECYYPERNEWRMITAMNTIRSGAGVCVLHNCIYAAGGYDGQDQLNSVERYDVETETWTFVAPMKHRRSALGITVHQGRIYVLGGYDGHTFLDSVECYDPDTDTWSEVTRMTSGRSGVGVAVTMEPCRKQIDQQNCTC

Molecule | Nqo1 transcript induction by quinone versus hydroquinone counterpart (NQO1) | alkylation of highly reactive cysteines including Cys151 [1] | number of KEAP1 cysteines modified [1] | stability in air [2] | anti-oxidant efficacy [3]
cymopol quinone [Compound 5] | retained the bioactivity | failed to alkylate | 10 | not stable in air | 
C=C1CCC(Br)C(C)(C)C1Cc1cc(OC)c(Br)cc1O (stereo not drawn) [Compound 4, 5-bromo-2-((3-bromo-2,2-dimethyl-6-methylenecyclohexyl)methyl)-4-methoxyphenol] |  |  |  |  | reduced anti-oxidant efficacy
CC12CCC(Br)C(C)(C)C1Cc1cc(O)c(Br)cc1O2 (stereo not drawn) [Compound 3, 2,6-dibromo-1,1,4a-trimethyl-2,3,4,4a,9,9a-hexahydro-1H-xanthen-7-ol] |  |  |  |  | reduced anti-oxidant efficacy
